{"source": "paper PMC10779222", "about": "“Copper(II) Complexes with 1-(Isoquinolin-3-yl)heteroalkyl-2-ones: Synthesis, Structure and Evaluation of Anticancer, Antimicrobial and Antioxidant Potential” (International Journal of Molecular Sciences, 2023)", "key": {"A375 (melanoma)": {"tested_on": "A375 (melanoma)", "experiment": "MTT cytotoxicity assay on A375 cells", "assay_type": "cell-based, human", "conditions": "24 h incubation", "description": "(§1) Cytotoxic activity of the investigated compounds was evaluated against T98G (glioblastoma), HepG2 (hepatoma), LS-180 (colon cancer) and A375 (melanoma) cell lines. Human normal skin fibroblasts, CCD-1059Sk (CRL-2072), were used as reference (non-cancerous) cells. All of the cell lines were obtained from American Type Culture Collection (ATCC; Manassas, VA, USA). A375, T98G and CCD-1059Sk cells were cultured in Dulbecco’s Modified Eagle’s Medium (DMEM) (Sigma Aldrich, St. Louis, MO, USA) supplemented with 10% FBS, penicillin (100 U/mL) and streptomycin (100 μg/mL). LS-180 and HepG2 cells were cultured in Eagle’s Minimum Essential Medium supplemented with 10% FBS, penicillin (100 U/mL) and streptomycin (100 μg/mL). All of the cells were maintained at 37 °C in a humidified atmosphere of 5% CO2. The compounds were dissolved in DMSO in order to obtain stock solutions. At the day of the experiment, the suspension of cells (1 × 10^5 cells/mL) was distributed onto 96-well plates at a volume of 100 μL/well. After attachment, the cells were treated with the increased concentrations of the tested compounds in medium containing 2% FBS and incubated for 24 h. Then, the medium was removed from wells, and cells were rinsed with PBS. Afterwards, 15 μL of MTT working solution (5 mg/mL in PBS) was added to each well, and the plates were incubated for 3 h. Subsequently, 100 μL of 10% SDS solution was added to each well in order to dissolve the precipitated formazan crystals. After overnight incubation at 37 °C, the absorbance of the obtained solution was measured at λ = 570 nm using a microplate reader (Epoch, BioTek Instruments, Inc., Winooski, VT, USA). At least two independent experiments were performed in triplicate. […] IC50 values of the investigated derivatives and positive control (etoposide) were calculated using the IC50 online calculator [101]."}, "HepG2 (hepatoma)": {"tested_on": "HepG2 (hepatoma)", "experiment": "MTT cytotoxicity assay on HepG2 cells", "assay_type": "cell-based, human", "description": "as §1"}, "LS-180 (colon cancer)": {"tested_on": "LS-180 (colon cancer)", "experiment": "MTT cytotoxicity assay on LS-180 cells", "assay_type": "cell-based, human", "conditions": "24 h incubation", "description": "as §1"}, "T98G (glioblastoma)": {"tested_on": "T98G (glioblastoma)", "experiment": "MTT cytotoxicity assay on T98G cells", "assay_type": "cell-based", "description": "as §1"}, "[1]": {"tested_on": "CCD-1059Sk (human normal skin fibroblasts)", "experiment": "MTT cytotoxicity assay on non-cancerous fibroblasts", "assay_type": "cell-based", "conditions": "24 h incubation, non-cancerous cells", "description": "as §1"}, "[2]": {"tested_on": "A375, HepG2, LS-180, T98G and CCD-1059Sk cell lines", "experiment": "MTT cytotoxicity assay, summary statements over several cell lines", "assay_type": "cell-based", "conditions": "range over HepG2 and T98G", "description": "as §1"}, "HepG2 cells": {"tested_on": "HepG2 cells", "experiment": "Cell cycle analysis (image cytometry, DAPI) in HepG2", "assay_type": "cell-based, human", "conditions": "C2 at IC50 concentration", "description": "(§2) Cell cycle analysis of T98G and HepG2 cells pretreated with copper(II) complex C2 (CX) (at IC50 concentration) was performed on NucleoCounter NC-3000 Image Cytometer (ChemoMetec, Lillerod, Denmark). The investigated cells were seeded on 6-well culture plates (Corning Inc., New York, NY, USA) at the density of 1 × 10^5 cells/mL and cultured in the respective medium at 37 °C in a humidified atmosphere of 5% CO2. When the cells reached approximately 80% confluence, they were treated with C2 (CX), at a concentration of IC50, for 24 h. Subsequently, the cells were detached with trypsine, suspended in 250 μL of lysis buffer (Solution 10) supplemented with DAPI (10 μg/mL) and incubated for 5 min at 37 °C. Following this, stabilization buffer (Solution 11) was added, and the obtained cell suspension was applied on NC-slide and analyzed using NucleoCounter NC-3000 Image Cytometer equipped with NucleoView NC-3000^TM software (ChemoMetec A/S, Lillerod, Denmark). Experiments were repeated three times, and the measurements in each experiment were run in duplicate."}, "T98G cells [3]": {"tested_on": "T98G cells", "experiment": "Cell cycle analysis (image cytometry, DAPI) in T98G", "assay_type": "cell-based, human", "conditions": "24 h, C2 at IC50 concentration", "description": "as §2"}, "T98G cells [4]": {"tested_on": "T98G cells", "conditions": "C2 at 0.25 µg/mL (non-cytotoxic), drugs at IC50 or 100 µg/mL, 24 h, MTT", "description": "Next, T98G or HepG2 cells were incubated for 24 h with medium containing a mixture of the respective drugs mixed with the highest non-toxic concentration of C2 (CX). The viability of cells was evaluated using MTT assay, as described above. ANOVA analysis (with Tukey’s post hoc test) was performed in order to examine the possible interactions between compound C2 (CX) and ETO, CIS, 5-FU and TMZ."}, "[5]": {"experiment": "DPPH radical scavenging assay", "conditions": "±SD; 30 min, room temperature", "description": "The DPPH radical scavenging assay of samples was performed with ascorbic acid as a positive control. Briefly, 100 μL of different concentrations of the complexes, dissolved in DMSO, was mixed with 100 μL of 0.06 mM DPPH methanolic solution and incubated at room temperature in the dark for 30 min. The change in absorbance at λ = 517 nm was analyzed with the use of a 96-well microplate reader (Epoch, BioTek System, Winooski, VT, USA). The control was composed of DPPH and DMSO. DPPH inhibition was calculated according to the following equation:DPPH Inhibition (%) = [(Acontrol − Asample)/Acontrol] × 100% The radical scavenging activity of the samples was shown as the IC50 value (the concentration of the analyzed samples that caused a decrease in the non-reduced form of the DPPH radical by 50%)."}, "[6]": {"experiment": "ABTS radical scavenging assay", "conditions": "±SD; 10 min, 30 °C", "description": "The ABTS radical scavenging assay of samples (ligands or complexes) was performed with ascorbic acid as a positive control. Briefly, 30 μL of different concentrations of the samples, dissolved in DMSO, was mixed with 170 μL of ABTS solution (2 mM ABTS diammonium salt, 3.5 mM potassium persulfate) and completed with water to a final volume of 300 μL. ABTS solution with DMSO was used as a control. […] ABTS inhibition was calculated according to the following equation:ABTS Inhibition (%) = [(Acontrol − Asample)/Acontrol] × 100% The radical scavenging activity of the samples was shown as the IC50 value (the concentration of the analyzed samples that caused a decrease in the non-reduced form of the ABTS radical by 50%)."}}, "data": [{"smiles": "O=C1NCCN1c1cc2ccccc2cn1.O=C1NCCN1c1cc2ccccc2cn1.[Cl][Cu][Cl]", "note": "[C2, Dichloro{bis[1-(Isoquinolin-3-yl)imidazolidin-2-one]}copper(II)]", "values": [{"measurement": "IC50 ± SD, A375", "setting": "A375 (melanoma)", "value": "28.91 ± 1.79", "unit": "mg/L"}, {"measurement": "selectivity index (SI), HepG2", "setting": "HepG2 (hepatoma); HepG2 compared with CCD-1059-Sk", "value": 4.33}, {"measurement": "highest concentration that did not affect the viability of HepG2 cells", "setting": "HepG2 (hepatoma); MTT assay", "value": 0.25, "unit": "µg/mL"}, {"measurement": "IC50 ± SD, HepG2", "setting": "HepG2 (hepatoma); MTT, 24 h incubation", "value": "5.04 ± 0.42", "unit": "mg/L"}, {"measurement": "IC50 ± SD, LS180", "setting": "LS-180 (colon cancer)", "value": "5.88 ± 0.40", "unit": "mg/L"}, {"measurement": "highest concentration that did not affect the viability of T98G cells", "setting": "T98G (glioblastoma); MTT assay", "value": 0.25, "unit": "µg/mL"}, {"measurement": "IC50 ± SD, T98G", "setting": "T98G (glioblastoma); MTT, 24 h incubation", "value": "6.97 ± 0.52", "unit": "mg/L"}, {"measurement": "selectivity index (SI), T98G", "setting": "T98G (glioblastoma); T98G compared with CCD-1059-Sk", "value": 3.14}, {"measurement": "IC50 ± SD, CCD-1059-Sk", "setting": "[1]", "value": "21.86 ± 1.03", "unit": "mg/L"}, {"measurement": "IC50, HepG2 and T98G", "setting": "[2]", "value": "5.04 to 6.97", "unit": "mg/L"}, {"measurement": "effect on cell cycle progression, HepG2", "setting": "HepG2 cells; 24 h", "value": "cell cycle arrest in the sub-G1 phase"}, {"measurement": "DNA content in the sub-G1 phase", "setting": "HepG2 cells; HepG2, 24 h, control cells 10%, p < 0.0001", "value": 29, "unit": "%"}, {"measurement": "effect on cell cycle progression, T98G", "setting": "T98G cells [3]", "value": "cell cycle arrest in the G2/M phase"}, {"measurement": "effect on cytotoxicity of anticancer drugs, T98G", "setting": "T98G cells [4]", "value": "statistically significantly improved the cytotoxic effects of ETO, 5-FU and TMZ"}, {"measurement": "IC50 DPPH", "setting": "[5]", "value": "401.52 ± 2.48", "unit": "mg/L"}, {"measurement": "IC50 ABTS", "setting": "[6]", "value": "107.14 ± 1.42", "unit": "mg/L"}]}]}
